# Assay results reported in ChEMBL document CHEMBL3407452, “Linear and branched alkyl-esters and amides of gallic acid and other (mono-, di- and tri-) hydroxy benzoyl derivatives as promising anti-HCV inhibitors” (Eur J Med Chem, 2015).
# Calls of active or inactive are those of the source. The rule behind the calls is not given here.
# Tested on: Influenza A virus
# Assay: Antiviral activity against influenza A virus (H1N1)
# Assay type: functional, organism-based
# Details: not given
row,SMILES,Activity
1,O=C(NCCNC(=O)c1ccccc1O)c1ccccc1O,inactive
2,O=C(NCCN(CCNC(=O)c1cc(O)c(O)c(O)c1)CCNC(=O)c1cc(O)c(O)c(O)c1)c1cc(O)c(O)c(O)c1,inactive
3,O=C(NCCCCNC(=O)c1ccccc1O)c1ccccc1O,inactive
4,CCCCCCCCOC(=O)c1cc(O)c(O)c(O)c1 [OCTYL_GALLATE],inactive

# Tested on: Influenza A virus H3N2
# Assay: Antiviral activity against influenza A virus H3N2
# Assay type: functional, organism-based
# Details: not given
row,SMILES,Activity
1,O=C(NCCNC(=O)c1ccccc1O)c1ccccc1O,inactive
2,O=C(NCCN(CCNC(=O)c1cc(O)c(O)c(O)c1)CCNC(=O)c1cc(O)c(O)c(O)c1)c1cc(O)c(O)c(O)c1,inactive
3,O=C(NCCCCNC(=O)c1ccccc1O)c1ccccc1O,inactive
4,CCCCCCCCOC(=O)c1cc(O)c(O)c(O)c1 [OCTYL_GALLATE],inactive

# Tested on: not listed separately
# Assay: Cytotoxicity against human CEM cells assessed as inhibition of cell proliferation
# Assay type: cell-based
# Details: CEM cells (CCRF-CEM)
row,SMILES,CC50
1,O=C(NCCNC(=O)c1ccccc1O)c1ccccc1O,25 µM
2,O=C(NCCN(CCNC(=O)c1cc(O)c(O)c(O)c1)CCNC(=O)c1cc(O)c(O)c(O)c1)c1cc(O)c(O)c(O)c1,54 µM
3,O=C(NCCCCNC(=O)c1ccccc1O)c1ccccc1O,35 µM
4,CCCCCCCCOC(=O)c1cc(O)c(O)c(O)c1 [OCTYL_GALLATE],11 µM

# Tested on: Hepatitis C virus
# Assay: Antiviral activity against HCV genotype 1b I389luc-ubi-neo/NS3-3'/5.1 replicons infected in human Huh5-2 HCV subgenomic replicon-containing cells assessed as reduction in virus replication after 3 days by luciferase reporter gene assay
# Assay type: functional, Hepacivirus hominis
# Details: Hepatitis C virus, genotype 1b, Huh-5-2, 72 h
row,SMILES,EC90
1,O=C(NCCN(CCNC(=O)c1cc(O)c(O)c(O)c1)CCNC(=O)c1cc(O)c(O)c(O)c1)c1cc(O)c(O)c(O)c1,> 2.9 µM

# Same assay, conditions: Hepatitis C virus, genotype 1b, Huh-5-2, 72 h; read-out: EC50
row,SMILES,EC50
1,O=C(NCCN(CCNC(=O)c1cc(O)c(O)c(O)c1)CCNC(=O)c1cc(O)c(O)c(O)c1)c1cc(O)c(O)c(O)c1,> 2.9 µM
2,O=C(NCCCCNC(=O)c1ccccc1O)c1ccccc1O,11 µM

# Tested on: not listed separately
# Assay: Cytotoxicity against human Huh5-2 cells after 72 hrs by MTS assay
# Assay type: cell-based, Huh-5-2
# Details: not given
row,SMILES,CC50 at 72 h
1,O=C(NCCN(CCNC(=O)c1cc(O)c(O)c(O)c1)CCNC(=O)c1cc(O)c(O)c(O)c1)c1cc(O)c(O)c(O)c1,> 2.9 µM
2,O=C(NCCCCNC(=O)c1ccccc1O)c1ccccc1O,> 49 µM

# Tested on: Vesicular stomatitis virus
# Assay: Antiviral activity against vesicular stomatitis virus
# Assay type: functional, organism-based
# Details: not given
row,SMILES,Activity
1,O=C(NCCNC(=O)c1ccccc1O)c1ccccc1O,inactive
2,O=C(NCCN(CCNC(=O)c1cc(O)c(O)c(O)c1)CCNC(=O)c1cc(O)c(O)c(O)c1)c1cc(O)c(O)c(O)c1,inactive
3,O=C(NCCCCNC(=O)c1ccccc1O)c1ccccc1O,inactive
4,CCCCCCCCOC(=O)c1cc(O)c(O)c(O)c1 [OCTYL_GALLATE],inactive

# Tested on: Human immunodeficiency virus 1
# Assay: Antiviral activity against HIV1 3B infected in human CEM cells assessed as reduction in virus-induced cytopathicity after 4 to 5 days by microscopy based syncytium cell formation assay
# Assay type: functional, organism-based, CCRF-CEM
# Details: Human immunodeficiency virus 1, 3B, CCRF-CEM; read-out: EC50
row,SMILES,EC50
1,O=C(NCCNC(=O)c1ccccc1O)c1ccccc1O,> 10 µM
2,O=C(NCCN(CCNC(=O)c1cc(O)c(O)c(O)c1)CCNC(=O)c1cc(O)c(O)c(O)c1)c1cc(O)c(O)c(O)c1,10 µM
3,O=C(NCCCCNC(=O)c1ccccc1O)c1ccccc1O,> 10 µM
4,CCCCCCCCOC(=O)c1cc(O)c(O)c(O)c1 [OCTYL_GALLATE],> 2 µM

# Tested on: Human immunodeficiency virus 2
# Assay: Antiviral activity against HIV2 ROD infected in human CEM cells assessed as reduction in virus-induced cytopathicity after 4 to 5 days by microscopy based syncytium cell formation assay
# Assay type: functional, organism-based, ISOLATE ROD, CCRF-CEM
# Details: Human immunodeficiency virus 2, ISOLATE ROD, CCRF-CEM; read-out: EC50
row,SMILES,EC50
1,O=C(NCCNC(=O)c1ccccc1O)c1ccccc1O,> 10 µM
2,CCCCCCCCOC(=O)c1cc(O)c(O)c(O)c1 [OCTYL_GALLATE],> 2 µM

# Tested on: Felid alphaherpesvirus 1
# Assay: Antiviral activity against feline herpesvirus
# Assay type: functional, organism-based
# Details: not given
row,SMILES,Activity
1,O=C(NCCNC(=O)c1ccccc1O)c1ccccc1O,inactive
2,O=C(NCCN(CCNC(=O)c1cc(O)c(O)c(O)c1)CCNC(=O)c1cc(O)c(O)c(O)c1)c1cc(O)c(O)c(O)c1,inactive
3,O=C(NCCCCNC(=O)c1ccccc1O)c1ccccc1O,inactive
4,CCCCCCCCOC(=O)c1cc(O)c(O)c(O)c1 [OCTYL_GALLATE],inactive

# Tested on: Coxsackievirus B4
# Assay: Antiviral activity against human coxsackievirus B4
# Assay type: functional, organism-based
# Details: not given
row,SMILES,Activity
1,O=C(NCCNC(=O)c1ccccc1O)c1ccccc1O,inactive
2,O=C(NCCN(CCNC(=O)c1cc(O)c(O)c(O)c1)CCNC(=O)c1cc(O)c(O)c(O)c1)c1cc(O)c(O)c(O)c1,inactive
3,O=C(NCCCCNC(=O)c1ccccc1O)c1ccccc1O,inactive
4,CCCCCCCCOC(=O)c1cc(O)c(O)c(O)c1 [OCTYL_GALLATE],inactive

# Tested on: Vaccinia virus
# Assay: Antiviral activity against vaccinia virus
# Assay type: functional, organism-based
# Details: Orthopoxvirus vaccinia
row,SMILES,Activity
1,O=C(NCCNC(=O)c1ccccc1O)c1ccccc1O,inactive
2,O=C(NCCN(CCNC(=O)c1cc(O)c(O)c(O)c1)CCNC(=O)c1cc(O)c(O)c(O)c1)c1cc(O)c(O)c(O)c1,inactive
3,O=C(NCCCCNC(=O)c1ccccc1O)c1ccccc1O,inactive
4,CCCCCCCCOC(=O)c1cc(O)c(O)c(O)c1 [OCTYL_GALLATE],inactive

# Tested on: Chikungunya virus
# Assay: Antiviral activity against chikungunya virus
# Assay type: functional
# Details: not given
row,SMILES,Activity
1,O=C(NCCNC(=O)c1ccccc1O)c1ccccc1O,inactive
2,O=C(NCCN(CCNC(=O)c1cc(O)c(O)c(O)c1)CCNC(=O)c1cc(O)c(O)c(O)c1)c1cc(O)c(O)c(O)c1,inactive
3,O=C(NCCCCNC(=O)c1ccccc1O)c1ccccc1O,inactive
4,CCCCCCCCOC(=O)c1cc(O)c(O)c(O)c1 [OCTYL_GALLATE],inactive

# Tested on: Punta Toro virus
# Assay: Antiviral activity against punta toro virus
# Assay type: functional, organism-based
# Details: not given
row,SMILES,Activity
1,O=C(NCCNC(=O)c1ccccc1O)c1ccccc1O,inactive
2,O=C(NCCN(CCNC(=O)c1cc(O)c(O)c(O)c1)CCNC(=O)c1cc(O)c(O)c(O)c1)c1cc(O)c(O)c(O)c1,inactive
3,O=C(NCCCCNC(=O)c1ccccc1O)c1ccccc1O,inactive
4,CCCCCCCCOC(=O)c1cc(O)c(O)c(O)c1 [OCTYL_GALLATE],inactive

# Tested on: Respiratory syncytial virus
# Assay: Antiviral activity against RSV
# Assay type: functional, organism-based
# Details: not given
row,SMILES,Activity
1,O=C(NCCNC(=O)c1ccccc1O)c1ccccc1O,inactive
2,O=C(NCCN(CCNC(=O)c1cc(O)c(O)c(O)c1)CCNC(=O)c1cc(O)c(O)c(O)c1)c1cc(O)c(O)c(O)c1,inactive
3,O=C(NCCCCNC(=O)c1ccccc1O)c1ccccc1O,inactive
4,CCCCCCCCOC(=O)c1cc(O)c(O)c(O)c1 [OCTYL_GALLATE],inactive

# Tested on: Reovirus sp.
# Assay: Antiviral activity against reovirus
# Assay type: functional, organism-based
# Details: not given
row,SMILES,Activity
1,O=C(NCCNC(=O)c1ccccc1O)c1ccccc1O,inactive
2,O=C(NCCN(CCNC(=O)c1cc(O)c(O)c(O)c1)CCNC(=O)c1cc(O)c(O)c(O)c1)c1cc(O)c(O)c(O)c1,inactive
3,O=C(NCCCCNC(=O)c1ccccc1O)c1ccccc1O,inactive
4,CCCCCCCCOC(=O)c1cc(O)c(O)c(O)c1 [OCTYL_GALLATE],inactive

# Tested on: Sindbis virus
# Assay: Antiviral activity against sindbis virus
# Assay type: functional, organism-based
# Details: not given
row,SMILES,Activity
1,O=C(NCCNC(=O)c1ccccc1O)c1ccccc1O,inactive
2,O=C(NCCN(CCNC(=O)c1cc(O)c(O)c(O)c1)CCNC(=O)c1cc(O)c(O)c(O)c1)c1cc(O)c(O)c(O)c1,inactive
3,O=C(NCCCCNC(=O)c1ccccc1O)c1ccccc1O,inactive
4,CCCCCCCCOC(=O)c1cc(O)c(O)c(O)c1 [OCTYL_GALLATE],inactive

# Tested on: Feline coronavirus
# Assay: Antiviral activity against feline coronavirus
# Assay type: functional, organism-based
# Details: not given
row,SMILES,Activity
1,O=C(NCCNC(=O)c1ccccc1O)c1ccccc1O,inactive
2,O=C(NCCN(CCNC(=O)c1cc(O)c(O)c(O)c1)CCNC(=O)c1cc(O)c(O)c(O)c1)c1cc(O)c(O)c(O)c1,inactive
3,O=C(NCCCCNC(=O)c1ccccc1O)c1ccccc1O,inactive
4,CCCCCCCCOC(=O)c1cc(O)c(O)c(O)c1 [OCTYL_GALLATE],inactive

# Tested on: Human respirovirus 3
# Assay: Antiviral activity against human parainfluenza virus 3
# Assay type: functional, organism-based
# Details: not given
row,SMILES,Activity
1,O=C(NCCNC(=O)c1ccccc1O)c1ccccc1O,inactive
2,O=C(NCCN(CCNC(=O)c1cc(O)c(O)c(O)c1)CCNC(=O)c1cc(O)c(O)c(O)c1)c1cc(O)c(O)c(O)c1,inactive
3,O=C(NCCCCNC(=O)c1ccccc1O)c1ccccc1O,inactive
4,CCCCCCCCOC(=O)c1cc(O)c(O)c(O)c1 [OCTYL_GALLATE],inactive
